≈ marks a conversion by molar mass, not a printed value.
Experiments:
[1] = Rat plasma fraction unbound; assay type: in vitro ADME; details: read-out: Rat Fu Plasma
[2] = Rat intrinsic and hepatic clearance; assay type: in vitro ADME
Brain-plasma partition = assay type: in vivo; details: rat; for unbound brain-to-plasma partition coefficient (Kp,uu): unbound brain-plasma ratio, read-out: Brain-Plasma Kp,ω
[3] = Human plasma fraction unbound; assay type: in vitro ADME; details: read-out: Human Fu Plasma
mGlu4 = mGlu4 (Homo sapiens, UniProt Q14833); test: mGluR4 potentiation (PAM) fluorescence assay with EC20 agonist; assay type: cell-based
Description: The disclosed compounds and compositions can be evaluated for their ability to act as a potentiator of metabotropic glutamate receptor activity, in particular mGluR4 activity, by any suitable known methodology known in the art. For example, Chinese Hamster Ovary (CHO) cells transfected with human mGluR4 or HEK cells co-transfected with rat mGuR4 and the G-protein regulated Inwardly Rectifying Potassium channel (GIRK) were plated in clear bottom assay plates for assay in a Hamamatsu FDSS Fluorometric Plate Reader. The cells were loaded with either a Ca2+-sensitive fluorescent dye or the thallium responsive dye and the plates were washed and placed into a suitable kinetic plate reader. For human mGuR4 assays, a fluorescence baseline was established for 3-5 seconds, the disclosed compounds were then added to the cells, and the response in cells was measured. Approximately two and a half minutes later, a concentration of mGuR4 orthosteric agonist (e.g. glutamate or L-AP4) eliciting approximately 20% (EC20) of the maximal agonist response was added to the cells, and the response was measured. Two minutes later, a concentration of mGluR4 agonist (e.g. glutamate or L-AP4) eliciting 80% (EC80) of the maximal agonist response was added to the cells, and the response was measured. […] If the compound acts as a noncompetitive antagonist, an IC50 value is determined by non-linear curve fitting. […]

[4] = Rat brain fraction unbound; assay type: in vitro ADME; details: read-out: Rat Fu Brain
[5] = Human intrinsic and hepatic clearance; assay type: in vitro ADME
2C9 = 2C9 (Homo sapiens (Human), UniProt P11712); test: CYP 2C9 inhibition; assay type: in vitro ADME
Kinetic solubility = assay type: physicochemical; details: kinetic from dmso stock
2D6 = 2D6 (Homo sapiens (Human), UniProt P10635); test: CYP 2D6 inhibition; assay type: in vitro ADME
3A4 = 3A4 (Homo sapiens (Human), UniProt P08684); test: CYP 3A4 inhibition; assay type: in vitro ADME
Rat in vivo clearance = details: read-out: Rat in Vivo CL
1A2 = 1A2 (Homo sapiens (Human), UniProt P05177); test: CYP 1A2 inhibition; assay type: in vitro ADME
Sequence of 1A2 (P05177 whole entry): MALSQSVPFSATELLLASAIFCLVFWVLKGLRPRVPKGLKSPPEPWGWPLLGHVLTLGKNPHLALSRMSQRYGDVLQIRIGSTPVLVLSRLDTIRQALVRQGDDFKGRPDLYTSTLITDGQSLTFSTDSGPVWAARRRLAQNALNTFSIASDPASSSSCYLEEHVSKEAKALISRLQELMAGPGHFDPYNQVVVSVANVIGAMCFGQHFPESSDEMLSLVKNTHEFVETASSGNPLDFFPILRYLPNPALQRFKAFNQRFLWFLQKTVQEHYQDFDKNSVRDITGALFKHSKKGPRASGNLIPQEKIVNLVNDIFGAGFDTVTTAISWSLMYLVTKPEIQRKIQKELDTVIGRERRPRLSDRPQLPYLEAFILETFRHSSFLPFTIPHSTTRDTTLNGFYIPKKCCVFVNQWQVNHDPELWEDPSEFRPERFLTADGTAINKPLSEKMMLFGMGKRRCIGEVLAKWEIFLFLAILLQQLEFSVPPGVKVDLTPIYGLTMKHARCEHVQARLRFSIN

Sequence of 3A4 (P08684 whole entry): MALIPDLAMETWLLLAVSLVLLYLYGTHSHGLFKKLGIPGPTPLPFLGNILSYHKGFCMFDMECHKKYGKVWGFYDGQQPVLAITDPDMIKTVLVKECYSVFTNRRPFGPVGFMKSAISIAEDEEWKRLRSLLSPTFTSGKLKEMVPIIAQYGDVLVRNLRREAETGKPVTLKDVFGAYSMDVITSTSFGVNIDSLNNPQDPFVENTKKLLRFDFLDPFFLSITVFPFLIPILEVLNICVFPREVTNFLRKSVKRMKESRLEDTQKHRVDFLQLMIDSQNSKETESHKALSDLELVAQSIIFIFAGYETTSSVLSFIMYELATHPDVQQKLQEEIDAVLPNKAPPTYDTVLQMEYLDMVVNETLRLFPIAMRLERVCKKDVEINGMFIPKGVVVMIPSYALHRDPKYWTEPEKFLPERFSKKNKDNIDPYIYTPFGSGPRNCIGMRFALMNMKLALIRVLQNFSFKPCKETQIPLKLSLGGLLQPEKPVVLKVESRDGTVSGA
Sequence of 2C9 (P11712 whole entry): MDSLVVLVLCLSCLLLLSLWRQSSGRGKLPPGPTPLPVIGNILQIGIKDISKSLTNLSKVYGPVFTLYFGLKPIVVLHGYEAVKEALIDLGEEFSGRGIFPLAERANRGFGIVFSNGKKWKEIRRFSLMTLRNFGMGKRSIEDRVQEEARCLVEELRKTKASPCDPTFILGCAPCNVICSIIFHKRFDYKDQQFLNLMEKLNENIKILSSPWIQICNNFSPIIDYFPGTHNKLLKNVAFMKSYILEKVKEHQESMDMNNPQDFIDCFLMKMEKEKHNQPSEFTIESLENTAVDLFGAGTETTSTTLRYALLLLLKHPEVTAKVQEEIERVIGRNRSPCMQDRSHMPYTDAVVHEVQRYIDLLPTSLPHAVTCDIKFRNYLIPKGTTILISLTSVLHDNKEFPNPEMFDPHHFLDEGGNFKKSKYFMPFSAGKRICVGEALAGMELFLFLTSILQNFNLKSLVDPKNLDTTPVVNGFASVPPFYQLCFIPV
Sequence of 2D6 (P10635 whole entry): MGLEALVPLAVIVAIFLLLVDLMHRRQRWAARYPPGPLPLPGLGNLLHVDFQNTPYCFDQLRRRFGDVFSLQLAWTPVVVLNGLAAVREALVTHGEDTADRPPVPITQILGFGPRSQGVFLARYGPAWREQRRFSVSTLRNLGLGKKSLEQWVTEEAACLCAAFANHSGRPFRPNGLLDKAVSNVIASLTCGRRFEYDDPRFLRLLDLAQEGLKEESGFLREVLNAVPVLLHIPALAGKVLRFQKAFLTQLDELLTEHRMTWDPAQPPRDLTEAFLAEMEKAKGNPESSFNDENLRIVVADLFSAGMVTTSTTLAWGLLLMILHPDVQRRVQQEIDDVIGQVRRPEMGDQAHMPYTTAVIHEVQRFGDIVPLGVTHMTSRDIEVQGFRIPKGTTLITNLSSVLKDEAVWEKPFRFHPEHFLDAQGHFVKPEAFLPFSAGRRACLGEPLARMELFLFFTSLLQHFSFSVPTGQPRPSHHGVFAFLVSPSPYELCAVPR
Sequence of mGlu4 (Q14833 33-912 limits assumed): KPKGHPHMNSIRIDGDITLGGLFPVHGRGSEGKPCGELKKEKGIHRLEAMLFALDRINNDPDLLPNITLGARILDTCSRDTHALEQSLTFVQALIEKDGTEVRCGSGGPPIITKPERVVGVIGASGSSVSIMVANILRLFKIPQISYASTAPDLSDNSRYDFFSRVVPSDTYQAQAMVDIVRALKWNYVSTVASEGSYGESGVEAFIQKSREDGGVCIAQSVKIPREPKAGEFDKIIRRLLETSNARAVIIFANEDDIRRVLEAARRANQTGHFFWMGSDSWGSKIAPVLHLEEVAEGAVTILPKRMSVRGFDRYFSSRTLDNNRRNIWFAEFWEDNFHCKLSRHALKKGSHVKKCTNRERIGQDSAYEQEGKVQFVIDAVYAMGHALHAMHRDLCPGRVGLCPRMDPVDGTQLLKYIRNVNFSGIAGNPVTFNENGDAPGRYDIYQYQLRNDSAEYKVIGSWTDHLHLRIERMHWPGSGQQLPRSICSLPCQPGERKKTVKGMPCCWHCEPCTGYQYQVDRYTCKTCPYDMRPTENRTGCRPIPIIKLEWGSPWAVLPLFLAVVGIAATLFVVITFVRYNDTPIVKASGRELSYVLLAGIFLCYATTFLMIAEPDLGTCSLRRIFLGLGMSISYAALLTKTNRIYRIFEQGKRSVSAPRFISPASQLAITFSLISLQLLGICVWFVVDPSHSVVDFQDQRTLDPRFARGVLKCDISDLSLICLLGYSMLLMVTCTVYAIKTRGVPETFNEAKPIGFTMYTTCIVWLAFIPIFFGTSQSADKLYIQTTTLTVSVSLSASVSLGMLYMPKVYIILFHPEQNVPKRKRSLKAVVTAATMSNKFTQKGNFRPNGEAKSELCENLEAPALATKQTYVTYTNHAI

fraction unbound [1]	CLint scaled [2] [mL/min/kg]	Rat CLhep [2] [mL/min/kg]	Kp (Brain-plasma partition)	unbound brain-to-plasma partition coefficient (Kp,uu) (Brain-plasma partition)	fraction unbound [3]	EC50 (mGlu4) [µM]	fraction unbound [4]	CLint scaled [5] [mL/min/kg]	Human CLhep [5] [mL/min/kg]	IC50 (2C9) [µM]	solubility kinetic (Kinetic solubility) [µM]	IC50 (2D6) [µM]	IC50 (3A4) [µM]	clearance (Rat in vivo clearance) [mL/min/kg]	IC50 (1A2) [µM]	Structure (SMILES)
0.015	211	52.6	0.89	0.24	0.011	0.0697	0.004	53.8	15.1							c1cc2cc(Nc3n[nH]c4nccnc34)ccc2c(OCC2CCCCO2)n1 (stereo not drawn) [Compound 57]
0.039	120	44.2	0.57	0.15	0.038		0.01	26.5	11.5	15.3	2.4 ± 0.5 (≈ 0.906 µg/mL)	> 30	29.5	32.7	16.4	c1cnc2c(Nc3ccc4c(OCC5COCCO5)nccc4c3)n[nH]c2c1 (stereo not drawn) [Compound 73]
0.014	348	58.3	1.09	0.23	0.007	0.0788	0.003	72.3	16.3	3.56		22.2	22.6		8.43	c1cnc2c(Nc3ccc4c(OCC5CCCCO5)nccc4c3)n[nH]c2c1 (stereo not drawn) [Compound 56]
0.032	238	54.1	2.56	0.48	0.017		0.006	57	15.3	6.87	2.9 ± 0.4 (≈ 1.01 µg/mL)	22.5	11.4	74.2	4.96	CO[C@H](C)COc1nccc2cc(Nc3n[nH]c4cccnc34)ccc12 [Compound 70]
0.039	113	43.2	1.11	0.2	0.024		0.007	35.2	13.2	22	5.5 ± 0.5 (≈ 1.84 µg/mL)	> 30	9.45	82.2	4.76	COCCOc1nccc2cc(Nc3n[nH]c4cccnc34)ccc12 [Compound 67]
0.019	95.7	40.4	0.66	0.45	0.026		0.013	41.2	13.9	> 30	0.6 ± 0.1 (≈ 0.217 µg/mL)	> 30	> 30	36.9	> 30	c1cc2cc(Nc3n[nH]c4nccnc34)ccc2c(OCC2CCOC2)n1 (stereo not drawn) [Compound 85]

Source: patent US10968227B2, “Isoquinoline ether compounds as mGluR4 allosteric potentiators, compositions, and methods of treating neurological dysfunction” (Vanderbilt University, priority 2016, dated 2021)
